Source: the supplement of paper PMC13380429
± gives the standard deviation of the averaged measurements.

What was measured:
Details in all cases: 72 h
U2OS [1] = test: cell viability relative to DMSO; higher = less toxic
Caco-2 [2] = test: as above
HepG2 [3] = test: as above
Calu-3 [4] = test: as above
Vero E6 [5] = test: as above
U2OS [6] = test: drug sensitivity score (DSS) for viability; higher = more toxic; extreme values may be limits of the assay
Caco-2 [7] = test: as above
HepG2 [8] = test: as above
Calu-3 [9] = test: as above
Vero E6 [10] = test: as above
U2OS [11] = test: relative viability EC50 (midpoint between 100% and the lowest measured viability); higher = less toxic
Caco-2 [12] = test: as above
HepG2 [13] = test: as above
Calu-3 [14] = test: as above
Vero E6 [15] = test: as above

Row | SMILES | cell viability (U2OS [1]; 1 nM) | cell viability (U2OS [1]; 10 nM) | cell viability (U2OS [1]; 100 nM) | cell viability (U2OS [1]; 1000 nM) | cell viability (U2OS [1]; 10000 nM) | cell viability (Caco-2 [2]; 1 nM) | cell viability (Caco-2 [2]; 10 nM) | cell viability (Caco-2 [2]; 100 nM) | cell viability (Caco-2 [2]; 1000 nM) | cell viability (Caco-2 [2]; 10000 nM) | cell viability (HepG2 [3]; 1 nM) | cell viability (HepG2 [3]; 10 nM) | cell viability (HepG2 [3]; 100 nM) | cell viability (HepG2 [3]; 1000 nM) | cell viability (HepG2 [3]; 10000 nM) | cell viability (Calu-3 [4]; 1 nM) | cell viability (Calu-3 [4]; 10 nM) | cell viability (Calu-3 [4]; 100 nM) | cell viability (Calu-3 [4]; 1000 nM) | cell viability (Calu-3 [4]; 10000 nM) | cell viability (Vero E6 [5]; 1 nM) | cell viability (Vero E6 [5]; 10 nM) | cell viability (Vero E6 [5]; 100 nM) | cell viability (Vero E6 [5]; 1000 nM) | cell viability (Vero E6 [5]; 10000 nM) | drug sensitivity score (U2OS [6]) | drug sensitivity score (Caco-2 [7]) | drug sensitivity score (HepG2 [8]) | drug sensitivity score (Calu-3 [9]) | drug sensitivity score (Vero E6 [10]) | relative viability EC50 (U2OS [11]) | relative viability EC50 (Caco-2 [12]) | relative viability EC50 (HepG2 [13]) | relative viability EC50 (Calu-3 [14]) | relative viability EC50 (Vero E6 [15])
1 | COc1cc2c(c(OC)c1OC)-c1c(cc3c(c1OC)OCO3)C[C@H](C)[C@@](C)(O)C2 [schisandrol-B] | 101% | 99.9% | 105% | 103% | 97.9% | 104% | 92% | 95.9% | 95.9% | 97.4% | 100% | 114% | 93.3% | 98.4% | 100% | 100% | 92.8% | 101% | 105% | 96.5% | 102% | 102% | 102% | 100% | 97.8% | 0 | 0 | 0 | 0 | 0 | > 10 µM | > 10 µM | > 10 µM | > 10 µM | > 10 µM
2 | C[N+]1([O-])[C@@H]2C[C@@H](OC(=O)[C@H](CO)c3ccccc3)C[C@H]1[C@@H]1O[C@@H]12 (stereo not given in full) [scopolamine-N-oxide] | 93.9% | 96.5% | 93.9% | 98.5% | 104% | 88.4% | 97.6% | 85.9% | 96.6% | 102% | 105% | 93.1% | 107% | 107% | 108% | 99.7% | 95.4% | 100% | 102% | 94.5% | 93.1% | 83.9% | 104% | 97.4% | 107% | 0 | 0 | 0 | 0 | 0 | > 10 µM | > 10 µM | > 10 µM | > 10 µM | > 10 µM
3 | COC1=C[C@@H]2[C@@H]3Cc4ccc(OC)c(O)c4[C@]2(CCN3C)CC1=O [sinomenine] | 94.1% | 98.5% | 98.8% | 104% | 94.3% | 107% | 96.9% | 90.5% | 98.8% | 104% | 109% | 104% | 99.2% | 88.5% | 96.3% | 100% | 95.4% | 100% | 92.4% | 95.8% | 105% | 97.7% | 103% | 97% | 105% | 0 | 0 | 0.4 | 0 | 0 | > 10 µM | > 10 µM | > 10 µM | > 10 µM | > 10 µM
4 | CNS(=O)(=O)Cc1ccc2[nH]cc(CCN(C)C)c2c1 [sumatriptan] | 98.1% | 95.2% | 97.8% | 96.2% | 97.7% | 91.4% | 96.7% | 104% | 106% | 96.2% | 81.4% | 106% | 89.1% | 101% | 99.5% | 101% | 95.7% | 93.6% | 100% | 94.4% | 91.6% | 94.4% | 87.9% | 94.7% | 103% | 0 | 0 | 0 | 0 | 0 | > 10 µM | > 10 µM | > 10 µM | > 10 µM | > 10 µM
5 | CNCCCC1(c2ccccc2)OC(C)(C)c2ccccc21 (stereo not given) [talopram] | 101% | 98.7% | 100% | 99.4% | 99% | 91.4% | 104% | 103% | 101% | 99.2% | 101% | 102% | 89.8% | 110% | 106% | 99.4% | 102% | 102% | 96.3% | 103% | 93.7% | 96.8% | 90.1% | 99% | 104% | 0 | 0 | 0 | 0 | 0 | > 10 µM | > 10 µM | > 10 µM | > 10 µM | > 10 µM
6 | NCCS(=O)(=O)O [taurine] | 94.4% | 100% | 98.9% | 103% | 101% | 94.9% | 99.3% | 98% | 95.6% | 103% | 110% | 99.4% | 101% | 102% | 104% | 100% | 106% | 102% | 97.6% | 101% | 94.5% | 95.3% | 95.1% | 89.1% | 106% | 0 | 0 | 0 | 0 | 0 | > 10 µM | > 10 µM | > 10 µM | > 10 µM | > 10 µM
7 | CCCc1nc2c(C)cc(-c3nc4ccccc4n3C)cc2n1Cc1ccc(-c2ccccc2C(=O)O)cc1 [telmisartan] | 97.3% | 105% | 97.5% | 98.9% | 98.6% | 89.5% | 97.3% | 90.7% | 90.6% | 87.5% | 94.2% | 95.1% | 103% | 99.8% | 111% | 92.9% | 97.9% | 102% | 102% | 108% | 100% | 95.9% | 96% | 92.9% | 96.6% | 0 | 0 | 0 | 0 | 0 | > 10 µM | > 10 µM | > 10 µM | > 10 µM | > 10 µM
8 | Cc1cc(N2CCN([C@@H]3CN[C@H](C(=O)N4CCSC4)C3)CC2)n(-c2ccccc2)n1 [teneligliptin] | 95.8% | 101% | 99.5% | 100% | 98.3% | 104% | 97.9% | 94.3% | 101% | 90% | 101% | 106% | 98.4% | 97% | 94.7% | 104% | 108% | 92.6% | 91.9% | 102% | 104% | 98.9% | 101% | 99.2% | 98.2% | 0 | 0 | 0 | 0 | 0 | > 10 µM | > 10 µM | > 10 µM | > 10 µM | > 10 µM
9 | Nc1nc2[nH]cnc2c(=S)[nH]1 [thioguanine] | 104% | 98.5% | 94% | 67.4% | 25.1% | 101% | 90.1% | 94.6% | 76.2% | 43.4% | 88.1% | 99% | 86.2% | 84.1% | 19.2% | 99.6% | 103% | 95% | 94.8% | 80.5% | 96.6% | 103% | 92.3% | 97.5% | 19.2% | 7.9 | 5.7 | 7.1 | 0.9 | 4.8 | 1.16 µM | 1.19 µM | 1.75 µM | > 10 µM | 2.94 µM
10 | CCCC(C)C1(CC)C(=O)NC(=S)NC1=O (stereo not given) [thiopental] | 100% | 98.2% | 99.9% | 101% | 97.5% | 100% | 100% | 104% | 96.4% | 91% | 102% | 100% | 101% | 90.5% | 89.5% | 99.6% | 98.6% | 93.3% | 102% | 98.8% | 96.2% | 95.2% | 94% | 95.7% | 95.1% | 0 | 0 | 0.1 | 0 | 0 | > 10 µM | > 10 µM | > 10 µM | > 10 µM | > 10 µM
11 | C[n+]1cccc(C(=O)[O-])c1 [trigonelline] | 104% | 95.5% | 96.5% | 101% | 97.4% | 96.8% | 83.1% | 92.9% | 94% | 99.3% | 89.2% | 95.9% | 91.8% | 82.9% | 90.5% | 102% | 103% | 105% | 103% | 95.7% | 99.6% | 82.5% | 106% | 102% | 76.6% | 0 | 0 | 0 | 0 | 0.7 | > 10 µM | > 10 µM | > 10 µM | > 10 µM | > 10 µM
12 | CC(C)C[C@H](NC(=O)[C@@H](O)[C@H](N)Cc1ccccc1)C(=O)O [ubenimex] | 97% | 105% | 103% | 99.8% | 98.5% | 98.2% | 108% | 95.9% | 103% | 103% | 105% | 93.4% | 111% | 102% | 95.4% | 103% | 96% | 104% | 105% | 104% | 101% | 98.8% | 102% | 98.7% | 101% | 0 | 0 | 0 | 0 | 0 | > 10 µM | > 10 µM | > 10 µM | > 10 µM | > 10 µM
13 | C[C@H](CCC(=O)O)[C@H]1CC[C@H]2[C@@H]3[C@@H](O)C[C@@H]4C[C@H](O)CC[C@]4(C)[C@H]3CC[C@]12C [ursodiol] | 104% | 94.3% | 96.2% | 93.2% | 108% | 106 ± 2.8% | 102 ± 3.9% | 98.4 ± 0.14% | 94.9 ± 5.4% | 85.8 ± 15% | 97.7 ± 6.4% | 107 ± 4.5% | 97.2 ± 8.1% | 108 ± 7.4% | 106 ± 4.2% | 97% | 96.6% | 102% | 87.2% | 105% | 97.3 ± 3.1% | 101 ± 5.3% | 100 ± 6.9% | 104 ± 2.4% | 103 ± 14% | 0 | 0.95 ± 1.3 | 0 | 0 | 0 | > 10 µM | > 10 µM | > 10 µM | > 10 µM | > 10 µM
14 | NS(=O)(=O)Cc1noc2ccccc12 [zonisamide] | 94.1% | 93.9% | 92.4% | 98.4% | 102% | 84.9% | 97.9% | 96.1% | 96.3% | 106% | 110% | 102% | 98.2% | 94.5% | 102% | 95.1% | 97.9% | 100% | 115% | 88.1% | 101% | 93.3% | 98.5% | 93.8% | 106% | 0 | 0 | 0 | 0 | 0 | > 10 µM | > 10 µM | > 10 µM | > 10 µM | > 10 µM
